Assay results as given in ChEMBL document CHEMBL4049403, “Oligo-aspartic acid conjugates with benzo[c][2,6]naphthyridine-8-carboxylic acid scaffold as picomolar inhibitors of CK2” (Bioorg Med Chem, 2017).
Where a SMILES comes first, the peptide text is derived from it. The star is where a group is joined. X1 = O=C(O)c1ccc2c(c1)nc(OCCCCCCCCC(=O)*)c1ccncc12

Key:
[1] = target: Insulin-like growth factor 1 receptor (Homo sapiens) (UniProt P08069); assay: Inhibition of human IGF-1R assessed as residual activity at 1 uM in presence of [33P]ATP by filter binding assay relative to control
[2] = target: MAP kinase-interacting serine/threonine-protein kinase 1 (Homo sapiens) (UniProt Q9BUB5); assay: Inhibition of human MNK1 assessed as residual activity at 1 uM in presence of [33P]ATP by filter binding assay relative to control
[3] = target: Tyrosine-protein kinase ABL1 (Homo sapiens) (UniProt P00519); assay: Inhibition of human ABL assessed as residual activity at 1 uM in presence of [33P]ATP by filter binding assay relative to control
[4] = target: Interleukin-1 receptor-associated kinase 4 (Homo sapiens) (UniProt Q9NWZ3); assay: Inhibition of human IRAK4 assessed as residual activity at 1 uM in presence of [33P]ATP by filter binding assay relative to control
[5] = target: Serine/threonine-protein kinase 24 (Homo sapiens) (UniProt Q9Y6E0); assay: Inhibition of human MST3 assessed as residual activity at 1 uM in presence of [33P]ATP by filter binding assay relative to control
[6] = target: Tyrosine-protein kinase Lck (Homo sapiens) (UniProt P06239); assay: Inhibition of human Lck assessed as residual activity at 1 uM in presence of 33P-ATP by filter-binding assay relative to control
[7] = target: SRSF protein kinase 1 (Homo sapiens) (UniProt Q96SB4); assay: Inhibition of human SRPK1 assessed as residual activity at 1 uM in presence of [33P]ATP by filter binding assay relative to control
[8] = target: Ephrin type-B receptor 3 (Homo sapiens) (UniProt P54753); assay: Inhibition of human EPHB3 assessed as residual activity at 1 uM in presence of 33P-ATP by filter-binding assay relative to control
[9] = target: Ribosomal protein S6 kinase alpha-3 (Homo sapiens) (UniProt P51812); assay: Inhibition of human RSK2 assessed as residual activity at 1 uM in presence of 33P-ATP by filter-binding assay relative to control
[10] = species: Homo sapiens; assay: Inhibition of human VEGFR assessed as residual activity at 1 uM in presence of 33P-ATP by filter-binding assay relative to control
[11] = target: Homeodomain-interacting protein kinase 2 (Homo sapiens) (UniProt Q9H2X6); assay: Inhibition of human HIPK2 assessed as residual activity at 1 uM in presence of 33P-ATP by filter-binding assay relative to control
[12] = target: Serine/threonine-protein kinase MARK1 (Homo sapiens) (UniProt Q9P0L2); assay: Inhibition of human MARK1 assessed as residual activity at 1 uM in presence of [33P]ATP by filter binding assay relative to control
[13] = target: RAC-alpha serine/threonine-protein kinase (Homo sapiens) (UniProt P31749); assay: Inhibition of human PKBa assessed as residual activity at 1 uM in presence of [33P]ATP by filter binding assay relative to control
[14] = target: High affinity nerve growth factor receptor (Homo sapiens) (UniProt P04629); assay: Inhibition of human TrkA assessed as residual activity at 1 uM in presence of [33P]ATP by filter binding assay relative to control
[15] = species: Homo sapiens; assay: Inhibition of human PKA assessed as residual activity at 1 uM in presence of [33P]ATP by filter binding assay relative to control
[16] = target: MAP kinase-activated protein kinase 2 (Homo sapiens) (UniProt P49137); assay: Inhibition of human MAPKAP-K2 assessed as residual activity at 1 uM in presence of [33P]ATP by filter binding assay relative to control
[17] = target: MAP/microtubule affinity-regulating kinase 4 (Homo sapiens) (UniProt Q96L34); assay: Inhibition of human MARK4 assessed as residual activity at 1 uM in presence of [33P]ATP by filter binding assay relative to control
[18] = target: Tyrosine-protein kinase BTK (Homo sapiens) (UniProt Q06187); assay: Inhibition of human BTK assessed as residual activity at 1 uM in presence of 33P-ATP by filter-binding assay relative to control
[19] = target: Angiopoietin-1 receptor (Homo sapiens) (UniProt Q02763); assay: Inhibition of human TIE2 assessed as residual activity at 1 uM in presence of 33P-ATP by filter-binding assay relative to control
[20] = target: Dual specificity mitogen-activated protein kinase kinase 6 (Homo sapiens) (UniProt P52564); assay: Inhibition of human MKK6 assessed as residual activity at 1 uM in presence of [33P]ATP by filter binding assay relative to control
[21] = target: Receptor-interacting serine/threonine-protein kinase 2 (Homo sapiens) (UniProt O43353); assay: Inhibition of human RIPK2 assessed as residual activity at 1 uM in presence of 33P-ATP by filter-binding assay relative to control
[22] = target: Dual specificity mitogen-activated protein kinase kinase 2 (Homo sapiens) (UniProt P36507); assay: Inhibition of human MKK2 assessed as residual activity at 1 uM in presence of [33P]ATP by filter binding assay relative to control
[23] = target: Fibroblast growth factor receptor 1 (Homo sapiens) (UniProt P11362); assay: Inhibition of human FGFR1 assessed as residual activity at 1 uM in presence of [33P]ATP by filter binding assay relative to control
[24] = target: Casein kinase II subunit alpha (Homo sapiens, UniProt P68400); assay: Inhibition of CK2alpha (unknown origin) (1 to 335 residues) using 5-TAMRA-RADDSDDDDD as substrate after 30 mins by fluorescence imaging method
[25] = target: Serine/threonine-protein kinase tousled-like 1 (Homo sapiens) (UniProt Q9UKI8); assay: Inhibition of human TLK1 assessed as residual activity at 1 uM in presence of 33P-ATP by filter-binding assay relative to control

Sequence of RAC-alpha serine/threonine-protein kinase (Homo sapiens) (P31749 whole entry): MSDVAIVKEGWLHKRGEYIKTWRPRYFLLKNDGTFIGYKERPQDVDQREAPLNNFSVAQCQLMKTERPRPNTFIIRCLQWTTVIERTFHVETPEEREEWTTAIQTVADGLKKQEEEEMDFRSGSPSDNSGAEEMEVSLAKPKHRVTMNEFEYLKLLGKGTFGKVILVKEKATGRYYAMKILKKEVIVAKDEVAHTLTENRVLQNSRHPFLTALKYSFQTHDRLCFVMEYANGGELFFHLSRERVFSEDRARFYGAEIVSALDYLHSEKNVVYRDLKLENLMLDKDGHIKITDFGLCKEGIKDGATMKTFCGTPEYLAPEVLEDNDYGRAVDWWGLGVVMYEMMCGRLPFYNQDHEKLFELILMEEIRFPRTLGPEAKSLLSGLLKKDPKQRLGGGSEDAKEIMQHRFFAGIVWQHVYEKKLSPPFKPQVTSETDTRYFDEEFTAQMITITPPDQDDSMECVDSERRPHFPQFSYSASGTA
Sequence of Interleukin-1 receptor-associated kinase 4 (Homo sapiens) (Q9NWZ3 whole entry): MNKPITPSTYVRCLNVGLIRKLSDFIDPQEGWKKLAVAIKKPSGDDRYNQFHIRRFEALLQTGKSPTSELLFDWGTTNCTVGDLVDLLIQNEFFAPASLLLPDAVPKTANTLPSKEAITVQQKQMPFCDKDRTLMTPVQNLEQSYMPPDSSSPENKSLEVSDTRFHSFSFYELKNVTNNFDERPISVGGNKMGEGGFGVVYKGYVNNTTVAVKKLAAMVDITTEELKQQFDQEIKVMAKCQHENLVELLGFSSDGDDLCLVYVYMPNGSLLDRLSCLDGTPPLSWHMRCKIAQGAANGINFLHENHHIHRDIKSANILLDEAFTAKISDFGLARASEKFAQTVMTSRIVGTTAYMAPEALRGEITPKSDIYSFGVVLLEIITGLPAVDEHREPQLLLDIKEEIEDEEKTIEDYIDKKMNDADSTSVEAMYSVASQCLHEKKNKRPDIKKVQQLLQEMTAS
Sequence of High affinity nerve growth factor receptor (Homo sapiens) (P04629 33-796 limits assumed): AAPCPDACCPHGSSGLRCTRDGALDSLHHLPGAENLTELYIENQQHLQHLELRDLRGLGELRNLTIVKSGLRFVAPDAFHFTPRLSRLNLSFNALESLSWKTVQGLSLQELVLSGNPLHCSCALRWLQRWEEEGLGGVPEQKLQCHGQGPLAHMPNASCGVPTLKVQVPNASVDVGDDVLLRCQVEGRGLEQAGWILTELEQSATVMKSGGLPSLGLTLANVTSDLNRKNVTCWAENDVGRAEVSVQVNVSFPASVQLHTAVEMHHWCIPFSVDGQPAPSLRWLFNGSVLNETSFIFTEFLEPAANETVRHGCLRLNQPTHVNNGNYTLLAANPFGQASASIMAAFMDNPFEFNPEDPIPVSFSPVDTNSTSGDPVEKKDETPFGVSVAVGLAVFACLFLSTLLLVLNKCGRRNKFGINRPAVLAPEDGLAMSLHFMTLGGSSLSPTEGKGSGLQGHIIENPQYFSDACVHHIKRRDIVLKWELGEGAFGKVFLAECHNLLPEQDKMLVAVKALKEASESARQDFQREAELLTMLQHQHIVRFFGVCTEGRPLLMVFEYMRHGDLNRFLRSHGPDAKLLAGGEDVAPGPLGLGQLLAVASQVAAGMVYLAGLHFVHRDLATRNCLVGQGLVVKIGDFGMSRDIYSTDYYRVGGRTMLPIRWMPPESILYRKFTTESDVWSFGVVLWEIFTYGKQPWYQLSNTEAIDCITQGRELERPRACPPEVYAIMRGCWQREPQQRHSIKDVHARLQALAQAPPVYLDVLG
Sequence of MAP kinase-activated protein kinase 2 (Homo sapiens) (P49137 whole entry, looked up): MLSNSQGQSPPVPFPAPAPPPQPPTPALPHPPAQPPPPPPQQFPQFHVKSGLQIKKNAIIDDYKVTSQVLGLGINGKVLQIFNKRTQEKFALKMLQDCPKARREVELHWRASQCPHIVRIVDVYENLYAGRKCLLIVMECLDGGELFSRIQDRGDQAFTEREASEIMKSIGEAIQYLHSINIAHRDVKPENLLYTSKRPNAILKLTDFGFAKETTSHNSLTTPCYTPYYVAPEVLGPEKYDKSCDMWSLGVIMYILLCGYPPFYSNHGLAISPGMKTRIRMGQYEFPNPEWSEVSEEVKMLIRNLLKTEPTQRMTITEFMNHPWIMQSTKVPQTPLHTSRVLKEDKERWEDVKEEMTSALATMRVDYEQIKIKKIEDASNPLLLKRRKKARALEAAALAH
Sequence of Insulin-like growth factor 1 receptor (Homo sapiens) (P08069 31-736 limits assumed): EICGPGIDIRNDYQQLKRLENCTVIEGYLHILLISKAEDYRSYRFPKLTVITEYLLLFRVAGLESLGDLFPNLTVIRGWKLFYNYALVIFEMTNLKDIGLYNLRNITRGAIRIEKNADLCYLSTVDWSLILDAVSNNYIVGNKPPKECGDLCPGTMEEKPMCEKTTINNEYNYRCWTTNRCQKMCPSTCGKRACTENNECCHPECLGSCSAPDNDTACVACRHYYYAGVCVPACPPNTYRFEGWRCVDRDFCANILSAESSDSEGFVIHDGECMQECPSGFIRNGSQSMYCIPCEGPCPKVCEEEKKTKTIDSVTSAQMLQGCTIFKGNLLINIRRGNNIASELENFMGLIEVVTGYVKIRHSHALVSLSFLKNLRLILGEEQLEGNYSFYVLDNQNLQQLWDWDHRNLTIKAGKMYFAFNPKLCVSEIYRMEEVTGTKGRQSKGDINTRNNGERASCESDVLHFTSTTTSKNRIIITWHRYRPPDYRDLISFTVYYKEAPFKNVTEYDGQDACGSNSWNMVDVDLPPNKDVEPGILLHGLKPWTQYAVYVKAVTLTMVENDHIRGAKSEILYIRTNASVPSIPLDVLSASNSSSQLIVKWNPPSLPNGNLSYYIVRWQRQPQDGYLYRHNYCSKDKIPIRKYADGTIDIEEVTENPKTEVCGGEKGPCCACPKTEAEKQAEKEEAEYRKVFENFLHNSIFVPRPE
Sequence of Insulin-like growth factor 1 receptor (Homo sapiens) (P08069 741-1367 limits assumed): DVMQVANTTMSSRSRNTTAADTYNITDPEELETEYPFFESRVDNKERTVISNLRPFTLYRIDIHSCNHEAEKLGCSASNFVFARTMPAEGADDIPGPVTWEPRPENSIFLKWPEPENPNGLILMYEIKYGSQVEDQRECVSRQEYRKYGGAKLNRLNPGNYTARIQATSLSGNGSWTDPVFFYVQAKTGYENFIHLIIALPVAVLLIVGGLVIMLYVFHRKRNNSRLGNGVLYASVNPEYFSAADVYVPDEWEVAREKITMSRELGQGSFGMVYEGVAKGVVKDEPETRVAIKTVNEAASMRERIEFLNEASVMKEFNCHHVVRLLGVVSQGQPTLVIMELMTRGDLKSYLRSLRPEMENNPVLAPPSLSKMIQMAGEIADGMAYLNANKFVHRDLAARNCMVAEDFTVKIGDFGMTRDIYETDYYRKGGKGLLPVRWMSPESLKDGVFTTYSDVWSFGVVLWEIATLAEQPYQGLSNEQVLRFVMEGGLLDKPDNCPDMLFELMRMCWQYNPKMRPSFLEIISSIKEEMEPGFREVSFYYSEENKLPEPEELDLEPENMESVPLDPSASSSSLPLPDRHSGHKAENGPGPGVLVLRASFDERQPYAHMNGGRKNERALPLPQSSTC
Sequence of Fibroblast growth factor receptor 1 (Homo sapiens) (P11362 22-822 limits assumed): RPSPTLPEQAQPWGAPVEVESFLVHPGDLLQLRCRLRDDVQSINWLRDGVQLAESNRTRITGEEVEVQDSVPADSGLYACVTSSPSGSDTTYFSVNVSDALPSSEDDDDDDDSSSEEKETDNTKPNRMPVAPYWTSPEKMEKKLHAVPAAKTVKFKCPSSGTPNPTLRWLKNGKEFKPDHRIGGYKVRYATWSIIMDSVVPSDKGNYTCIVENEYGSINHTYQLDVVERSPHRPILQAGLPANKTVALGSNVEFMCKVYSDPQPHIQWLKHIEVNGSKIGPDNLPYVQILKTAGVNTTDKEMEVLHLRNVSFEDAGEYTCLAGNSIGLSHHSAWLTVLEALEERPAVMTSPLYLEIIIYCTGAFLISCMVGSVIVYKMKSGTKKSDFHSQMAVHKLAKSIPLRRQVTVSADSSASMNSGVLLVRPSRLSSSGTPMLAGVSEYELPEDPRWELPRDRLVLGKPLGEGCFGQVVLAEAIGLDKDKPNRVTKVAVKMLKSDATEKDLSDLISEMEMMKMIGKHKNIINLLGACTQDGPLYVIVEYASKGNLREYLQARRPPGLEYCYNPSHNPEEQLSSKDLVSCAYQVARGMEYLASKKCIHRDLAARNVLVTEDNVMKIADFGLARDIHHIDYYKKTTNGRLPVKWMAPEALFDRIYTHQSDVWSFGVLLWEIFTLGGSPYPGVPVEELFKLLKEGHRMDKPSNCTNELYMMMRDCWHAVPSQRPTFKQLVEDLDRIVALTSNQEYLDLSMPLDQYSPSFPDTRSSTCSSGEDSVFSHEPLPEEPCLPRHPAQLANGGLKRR
Sequence of MAP kinase-interacting serine/threonine-protein kinase 1 (Homo sapiens) (Q9BUB5 whole entry, looked up): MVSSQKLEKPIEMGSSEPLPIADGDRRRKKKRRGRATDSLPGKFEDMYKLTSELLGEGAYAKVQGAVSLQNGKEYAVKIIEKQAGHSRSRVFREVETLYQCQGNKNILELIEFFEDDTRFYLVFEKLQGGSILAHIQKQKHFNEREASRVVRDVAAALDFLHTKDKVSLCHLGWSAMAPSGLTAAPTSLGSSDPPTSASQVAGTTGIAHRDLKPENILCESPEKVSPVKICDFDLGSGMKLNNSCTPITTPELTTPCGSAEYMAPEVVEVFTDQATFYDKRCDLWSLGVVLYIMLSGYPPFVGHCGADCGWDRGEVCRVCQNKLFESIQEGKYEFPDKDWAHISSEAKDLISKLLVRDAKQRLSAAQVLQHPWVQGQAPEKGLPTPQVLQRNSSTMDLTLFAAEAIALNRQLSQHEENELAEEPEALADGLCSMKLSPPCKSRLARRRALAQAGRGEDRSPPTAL

- Activity [1]: 79%
- Activity [2]: 67%
- Activity [3]: 100%
- Activity [4]: 103%
- Activity [5]: 93%
- Activity [6]: 39%
- Activity [7]: 86%
- Activity [8]: 56%
- Activity [9]: 62%
- Activity [10]: 63%
- Activity [11]: 5%
- Activity [12]: 79%
- Activity [13]: 89%
- Activity [14]: 85%
- Activity [15]: 94%
- Activity [16]: 100%
- Activity [17]: 91%
- Activity [18]: 62%
- Activity [19]: 41%
- Activity [20]: 74%
- Activity [21]: 39%
- Activity [22]: 88%
- Activity [23]: 92%
- IC50 [24]: 4 nM
- Activity [25]: 63%
Compound: NCCCC[C@H](NC(=O)[C@H](CC(=O)O)NC(=O)[C@H](CC(=O)O)NC(=O)[C@H](CC(=O)O)NC(=O)[C@H](CC(=O)O)NC(=O)[C@H](CC(=O)O)NC(=O)[C@H](CC(=O)O)NC(=O)CCCCCCCCOc1nc2cc(C(=O)O)ccc2c2cnccc12)C(=O)O (X1-DDDDDDK-OH)
